The text below walks through data of US20230321171A1, “ANTI-COCCIDIAL COMPOSITION COMPRISING MANGOSTEEN AND USES THEREOF” (CJ CHEILJEDANG CORPORATION, priority 2020, published 2023).

A value given as a limit tells only on which side of the number the result lay.

Assay [1] has as its system Eimeria tenella. Put plainly: Protozoan (sporozoite) direct killing ability, Eimeria tenella. The assay is classed as cell-based. As to conditions: for Eimeria tenella protozoal death rate: Table 12 comparison with individual components; for Eimeria tenella protozoal death rate (%): compared to PBS-treated negative control group; for Minimum concentration for killing 100% protozoa (ppm), Eimeria tenella: tested 1 to 500 ppm. The procedure:
(§1) In the present example, protozoan (sporozoite) direct killing ability evaluation was conducted against 3 representative Eimeria kinds known to be infected in most farms (E. tenella, E. acervulina, E. maxima).
(§2) A certain amount of oocysts of each protozoan was put in a tube containing glass beads and pulverized, and then to remove the crushed oocyst cell wall and other debris, internal sporocysts were purified using the percoll density gradient, and washed with PBS solution. A reagent comprising sodium taurocholic acid (Sigma aldrich, USA) and trypsin (Gibco, USA), respectively, was treated to sporocysts of Eimeria tenella, Eimeria acervulina and Eimeria maxima for excystation and they were incubated, and then they were washed with PBS solution once and protozoa were obtained.
(§3) After reacting the mangosteen pericarp extract, epicatechin, alpha-mangostin, xanthone and anticoccidial agents, salinomycin and diclazuril (hereinafter, material) with 3 kinds of Eimeria protozoa at various concentrations of 1 to 500 ppm, respectively, only alive protozoa (sporozoites) were counted through microscopic observation. Then, the death rate (%) of the protozoa when each material was treated compared to the PBS-treated negative control group was calculated and shown in Table 8 to Table 10 and Table 12, respectively, and the minimum concentration which directly killed the protozoa by 100% was shown in Table 11 below.

In assay [2] the test system is Eimeria tenella. Described as above. The assay is classed as cell-based. To be noted: Table 15, method similar to Example 2-1.
In another assay the test system is Eimeria maxima. In words: Protozoan (sporozoite) direct killing ability, Eimeria maxima. As to conditions: for Eimeria maxima protozoal death rate (%): compared to PBS-treated negative control group; for Minimum concentration for killing 100% protozoa (ppm), Eimeria maxima: tested 1 to 500 ppm. The assay is classed as cell-based. Here is the method:
as §1, §2, §3

The subject of a further assay is Eimeria acervulina. Put plainly: Protozoan (sporozoite) direct killing ability, Eimeria acervulina. To be noted: for Eimeria acervulina protozoal death rate (%): compared to PBS-treated negative control group; for Minimum concentration for killing 100% protozoa (ppm), Eimeria acervulina: tested 1 to 500 ppm. The assay is classed as cell-based. Here is the method:
as §1, §2, §3

A short description of assay [3]: Broiler growth effect (daily weight gain) due to intake in feed. The assay is classed as in vivo, Ross broilers. To be noted: formulated feed 60 ppm for 7 days. Here is the method: An efficacy evaluation test was performed in an animal experiment facility in Gyeongsangnam-do, South Korea. One-day-old female Ross broilers were individually weighed and randomly divided into groups to use in an experiment. Matters and conditions for experimental design were described in Table 16.
(§4) A breeding farm was managed according to the Korean poultry breeding management guidelines. Cages and the breeding farm were cleaned and disinfected before starting the test. The temperature of […] and the humidity of 40 to 50% of the breeding farm were maintained, and it was continuously monitored.
(§5) For the feed, Korea Feed A1-choi product was used, and each material (salinomycin (Cheil Bio Cheilsalino-60 product), xanthone (Sigma Aldrich X600 product), and the mangosteen extract prepared in Example 1-2 above) was added to the feed, respectively, at a concentration described in Table 17 below to be self-mixed. Antibiotics and supplements were not used in general feed and mixed feed, and no anticoccidial agent other than each material was added. Broilers were fed ad libitum throughout the experiment period. After putting 20 1-day-age broilers in cages randomly placed for each of the control group or test group and breeding, general feed was fed for 7 days, and then the mixed feed prepared above was ingested by dividing by control group or test group. The feed formulation administered to the control group (negative control group or positive control group) and test group was described in Table 17 below.
The body weight before feeding and on the 7th day after feeding the feed of Table 16 above into individuals was measured, and the difference was divided by the number of days to calculate the daily weight gain (ADG, g/d), and the result was shown in Table 18. For comparison between 6 treatment groups, Duncan post-test multiple comparison method was used, and statistical significance was verified using a SAS statistical program, and the result was shown in Table 18.

The test system of assay [4] is Eimeria tenella. In words: In vivo anticoccidial efficacy evaluation in broilers challenge-inoculated with Eimeria tenella. Also noted: species or system Ross broilers. The procedure:
An in vivo anticoccidial efficacy evaluation test was performed in an animal experiment facility in Gyeongsangnam-do, South Korea. One-day-old female Ross broilers were individually weighed and randomly divided into groups to use in an experiment. Matters and conditions for experimental design were described in Table 2.
as §4
as §5, with “Al-choi” for “A1-choi”, “3” for “17”, “group.” for “group. The feed formulation administered to the control group (negative control group or positive control group) and test group was described in Table 17 below.”
The feed formulation administered to the control group (negative control group or positive control group) and test group and whether coccidiosis was induced by Eimeria tenella were described in Table 3 below. 20 1-day-old broilers were put in a cage randomly arranged for each test group, and after 7 days of feeding the general feed, the formulated feed as described in Table 3 was divided into each test group and ingested.
14-day-old broilers were orally inoculated with 10,000 oocysts (90% sporulated Eimeria tenella oocysts) per individual to induce coccidiosis.
The anticoccidial efficacy by test group designed in Example 1-3 above was shown as an anticoccidial index (ACI), and the anticoccidial index was calculated by Equation 2 below. The ACI score is out of 200 points, and the higher the ACI score, the more excellent the anticoccidial ability, and when it is 120 points or more to less than 140 points, it is determined that it is effective as an anticoccidial material, and when it is 140 points or more to less than 160 points, it is determined that it is excellent as an anticoccidial material, and when it is 160 points or more, it is determined that the anticoccidial effect is very excellent. (Luis Miguel De Pablos et al., Anticoccidial activity of maslinic acid against infection with Eimeria tenella in chickens, Parasitol Res, 2010)
Anticoccidial index (ACI)=(survival rate after challenge inoculation (%))+(daily weight gain compared to negative control group (RWG, %))−(lesion score×10)−(fecal oocyst excretion amount index) (Equation 2)
1) Survival rate: the number of dead individuals was recorded daily, and post mortem autopsy was performed to determine a cause of mortality, and the number of individuals who died due to causes other than coccidiosis was excluded. The survival rate (%) up to the 8th day after challenge inoculation was used for anticoccidial index calculation.
2) Daily weight gain: body weight was measured for each cage before challenge inoculation with a protozoan into an individual and at the 7th day after challenge inoculation, and the difference was divided by the number of days to calculate the daily weight gain (ADG, g/d). ‘Daily weight gain compared to the negative control group (RWG, %)’which was calculated by dividing the daily weight gain (ADG, average daily gain; g/d) of each experimental group by the weight gain (ADG, g/d) of the non-infected negative control group and multiplying by 100 was used for anticoccidial index calculation. […]

Consider `Oc1cc(O)c2c(c1)O[C@H](c1ccc(O)c(O)c1)[C@H](O)C2` [Epicatechin, epicatechin], for which the “Eimeria tenella protozoal death rate” value in the assay on Eimeria tenella [1] (3.9 ppm), in the assay on Eimeria tenella [1] (7.8 ppm) and in the assay on Eimeria tenella [1] (15.6 ppm) was 0% each time. Further, the “Minimum concentrataion of killing protozoa 100% (ppm)” value with Eimeria tenella [2] is given as not below 500 ppm.
For the compound `N#CC(c1ccc(Cl)cc1)c1c(Cl)cc(-n2ncc(=O)[nH]c2=O)cc1Cl` (centres unmarked) [Diclazuril, diclazuril], the “Eimeria maxima protozoal death rate (%)” value in the assay with Eimeria maxima (1 ppm), with Eimeria maxima (5 ppm), in the assay with Eimeria maxima (10 ppm), with Eimeria maxima (50 ppm), in the assay with Eimeria maxima (100 ppm) and in the assay with Eimeria maxima (125 ppm) was 0% throughout. In addition, the “Eimeria maxima protozoal death rate (%)” value in the assay on Eimeria maxima (250 ppm) was determined as 16%; in the assay with Eimeria maxima (500 ppm), 30%. For the same compound, in the assay on Eimeria maxima, the “Minimum concentration for killing 100% protozoa (ppm), Eimeria maxima” value was more than 500 ppm. Moreover, the “Eimeria acervulina protozoal death rate (%)” value in the assay on Eimeria acervulina (1 ppm) amounted to 0%; in the assay on Eimeria acervulina (5 ppm), 0%; in the assay on Eimeria acervulina (10 ppm) it was 0%; in the assay with Eimeria acervulina (50 ppm), 0%; in the assay on Eimeria acervulina (100 ppm) it was 0%; in the assay on Eimeria acervulina (125 ppm) it was 23%. Also, the “Eimeria acervulina protozoal death rate (%)” value stood at 12% in the assay with Eimeria acervulina (250 ppm) and 44% in the assay with Eimeria acervulina (500 ppm). Further, the “Minimum concentration for killing 100% protozoa (ppm), Eimeria acervulina” value with Eimeria acervulina came out at 500 ppm. The “Eimeria tenella protozoal death rate (%)” value with Eimeria tenella [1] (1 ppm), in the assay with Eimeria tenella [1] (5 ppm), with Eimeria tenella [1] (10 ppm), in the assay on Eimeria tenella [1] (50 ppm), in the assay on Eimeria tenella [1] (100 ppm) and with Eimeria tenella [1] (125 ppm) was 0% throughout. In addition, the “Eimeria tenella protozoal death rate (%)” value came to 35% with Eimeria tenella [1] (250 ppm) and 44% in the assay with Eimeria tenella [1] (500 ppm). Also, the “Minimum concentration for killing 100% protozoa (ppm), Eimeria tenella” value in the assay on Eimeria tenella [1] was more than 500 ppm.
Consider `CC[C@@H](C(=O)[C@@H](C)[C@@H](O)[C@H](C)[C@@H]1O[C@@H]([C@@H](CC)C(=O)O)CC[C@@H]1C)[C@H]1O[C@]2(C=C[C@@H](O)[C@]3(CC[C@@](C)([C@H]4CC[C@](O)(CC)[C@H](C)O4)O3)O2)[C@H](C)C[C@@H]1C` [Salinomycin, salinomycin], for which the “Daily weight gain (ADG)” value in assay [3] was determined as 46.86 g/day. For the same compound, the “End-initial body weight (7 days, g)” value in assay [3] came to 328 g. Moreover, the “End body weight” value in assay [3] (non-infected broilers) was 526 g. For the same compound, the “Eimeria maxima protozoal death rate (%)” value with Eimeria maxima (1 ppm) stood at 0%; with Eimeria maxima (5 ppm), 0%; with Eimeria maxima (10 ppm), 0%; with Eimeria maxima (50 ppm) it was 0%; in the assay on Eimeria maxima (100 ppm), 59%; with Eimeria maxima (125 ppm), 65%. Also, the “Eimeria maxima protozoal death rate (%)” value in the assay with Eimeria maxima (250 ppm) is 97%; in the assay with Eimeria maxima (500 ppm) it was 100%. Besides, the “Minimum concentration for killing 100% protozoa (ppm), Eimeria maxima” value in the assay on Eimeria maxima is on record as 500 ppm. In addition, the “Eimeria acervulina protozoal death rate (%)” value in the assay with Eimeria acervulina (1 ppm) was 0%; in the assay with Eimeria acervulina (5 ppm), 0%; with Eimeria acervulina (10 ppm), 0%; in the assay on Eimeria acervulina (50 ppm) it was 0%; with Eimeria acervulina (100 ppm) it was 60%; in the assay with Eimeria acervulina (125 ppm), 73%. For the same compound, the “Eimeria acervulina protozoal death rate (%)” value in the assay with Eimeria acervulina (250 ppm) and in the assay on Eimeria acervulina (500 ppm) was 100% in each case. Further, the “Minimum concentration for killing 100% protozoa (ppm), Eimeria acervulina” value with Eimeria acervulina came out at 250 ppm. Besides, the “Eimeria tenella protozoal death rate (%)” value is recorded as 0% in the assay with Eimeria tenella [1] (1 ppm); 0% in the assay on Eimeria tenella [1] (5 ppm); 0% with Eimeria tenella [1] (10 ppm); 0% in the assay with Eimeria tenella [1] (50 ppm); 46% with Eimeria tenella [1] (100 ppm); 74% in the assay on Eimeria tenella [1] (125 ppm). The “Eimeria tenella protozoal death rate (%)” value in the assay on Eimeria tenella [1] (250 ppm) and in the assay with Eimeria tenella [1] (500 ppm) was 100% in each case. The “Minimum concentration for killing 100% protozoa (ppm), Eimeria tenella” value in the assay with Eimeria tenella [1] was 500 ppm. The “Intermediate body weight (14-day-old, before challenge inoculation)” value in the assay with Eimeria tenella [4] (formulated feed 60 ppm from day 7, female Ross broilers) is 455.9. For the same compound, the Appendix lesion score in the assay with Eimeria tenella [4] (formulated feed 60 ppm, 8th day after challenge inoculation, scale of 0-4) turned out to be 2.7. The “End body weight (21-day-old, on the 7th day of challenge inoculation)” value in the assay with Eimeria tenella [4] (formulated feed 60 ppm, 10,000 E. tenella oocysts oral at 14 days) amounted to 917.6. For the same compound, in the assay with Eimeria tenella [4] (formulated feed 60 ppm, E. tenella infected broilers), the “Day 14~Day 21 ADG (daily weight gain)” value turned out to be 62.46 g/day. Besides, the “Anticoccidial index (ACI)” value with Eimeria tenella [4] (formulated feed 60 ppm, Equation 2, out of 200 points) came to 141. Further, the Oocyst excretion amount/gram in the assay on Eimeria tenella [4] (formulated feed 60 ppm, feces of 6~8th day of challenge inoculation, McMaster chamber) is reported as 1.30E+08 /gram. Further, the “RWG (daily weight gain compared to the negative control group)” value with Eimeria tenella [4] (formulated feed 60 ppm, relative to non-infected negative control group) stood at 94%.
